Results on eight compounds are retold here after patent US20140378474A1, “5-membered heteroarylcarboxamide derivatives as plasma kallikrein inhibitors” (NOVARTIS AG, priority 2012, published 2014).

The structures appear in SMILES notation.

For this assay, the target named is T1, Human plasma kallikrein (Homo sapiens, UniProt P03952).
T1 construct: purchased Kordia (Leiden, Netherlands) batch HPKA 1303
The experiment in a line: In vitro inhibition of plasma kallikrein (fluorogenic substrate DPro-Phe-Arg-(Rh110)-γGlu-OH). Conditions: human plasma kallikrein nominally 12 pM, substrate 0.5 μM, 1 hour pre-incubation at room temperature, read after 1 hour (t=60 min). Format: biochemical. The procedure: In Vitro Inhibition of Plasma Kallikrein
The fluorogenic substrate DPro-Phe-Arg-(Rh110)-γGlu-OH (where DPro is the amino acid d-proline, Rh110 is the fluorophore rhodamine 110 and γGlu is a […] linked to Rh110 via the gamma-carbonyl function; from Biosyntan, Berlin, Germany), being based on the chromogenic substrate described in Gallimore et al (Thromb Res 25, 293-298, 1982), was dissolved in DMSO at 5 mM and stored at −80° C. All other chemicals were of analytical grade.
Human plasma kallikrein was purchased from Kordia (Leiden, Netherlands, batch HPKA 1303) in lyophilized form.
The protein solution was reconstituted from the lyophilisate by addition of deinonized water. The resulting stock solution comprised the protein at a concentration of 0.17 mg/ml in 4 mM sodium acetate/HCl and 150 mM NaCl at pH 5.3. The stock solution was stored in aliquots at −80° C. Enzymatic reactions were conducted in ‘assay buffer’, comprising 50 mM Hepes/NaOH at pH 7.8, 150 mM NaCl, 1 mM EDTA and 0.05% (w/v) CHAPS.
Both, enzyme and substrate were diluted in assay buffer.
All protein and peptide containing solutions were handled in siliconized tubes (Life Systems Design, Merenschwand, Switzerland). The compound solutions as well as the enzyme and the substrate solutions were transferred to 384-well plates (black Cliniplate; cat. no. 95040020 Labsystems Oy, Finland) by means of a CyBi-Well 96-channel pipettor (CyBio AG, Jena, Germany). Plate measurements were conducted by the means of a Safire2 reader (TECAN, Maennedorf, Switzerland). The Safire2 is a monochomator-based instrument and wavelengths of 485 nm and 535 nm were taken for fluorescence excitation and emission acquisition, respectively. The bandwidths were set to 10 nm in both the excitation and the emission path. The fluorescence in each well was excited by three flashes per measurement.
For the determination of IC50 values, the assays were performed at room temperature in 384-well plates with a total assay volume of 25.25 μl per well.
The test compound was dissolved in 90% (v/v) DMSO/water. For the assays, […] of the 90% (v/v) DMSO/water solution or compound solution were added per well, followed by the addition of 12.5 μl protease solution (protease in assay buffer). The final assay concentration of the human plasma kallikrein was nominally 12 pM, the 11 compound concentrations in the dilution series were in the range form 1 nM to 100 μM. After 1 hour of pre-incubation at room temperature, the reactions were started by the addition of 12.5 μl substrate solution (in assay buffer, final assay concentration was 0.5 μM). After the addition of the substrate solution, the final DMSO concentration in the assay was 0.9% (v/v). The effect of the compound on the enzymatic activity was obtained from the linear part of the progress curves and determined after 1 hour (t=60 min). The IC50 value was calculated from the plot of percentage of inhibition vs. inhibitor concentration by a logistics fit according to the following equation:
where y is the %-inhibition at the inhibitor concentration, x. A1 is the lowest inhibition value, i.e. 0%, and A2 the maximum inhibition value, i.e. 100%. The exponent, p, is the Hill coefficient. The curve fitting was conducted with the non-linear regression routine of the analysis software Origin 7.5SR6 (Origin Lab Corporation).

T1 sequence (P03952 391-638 limits assumed): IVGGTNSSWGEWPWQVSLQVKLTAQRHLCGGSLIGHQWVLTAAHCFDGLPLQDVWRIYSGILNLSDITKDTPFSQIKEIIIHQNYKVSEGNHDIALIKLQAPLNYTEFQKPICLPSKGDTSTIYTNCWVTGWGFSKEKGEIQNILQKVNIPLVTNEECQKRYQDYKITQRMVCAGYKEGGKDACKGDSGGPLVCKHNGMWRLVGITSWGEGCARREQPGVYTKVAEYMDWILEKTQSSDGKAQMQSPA
T1 sequence (P03952 20-390 partner limits assumed): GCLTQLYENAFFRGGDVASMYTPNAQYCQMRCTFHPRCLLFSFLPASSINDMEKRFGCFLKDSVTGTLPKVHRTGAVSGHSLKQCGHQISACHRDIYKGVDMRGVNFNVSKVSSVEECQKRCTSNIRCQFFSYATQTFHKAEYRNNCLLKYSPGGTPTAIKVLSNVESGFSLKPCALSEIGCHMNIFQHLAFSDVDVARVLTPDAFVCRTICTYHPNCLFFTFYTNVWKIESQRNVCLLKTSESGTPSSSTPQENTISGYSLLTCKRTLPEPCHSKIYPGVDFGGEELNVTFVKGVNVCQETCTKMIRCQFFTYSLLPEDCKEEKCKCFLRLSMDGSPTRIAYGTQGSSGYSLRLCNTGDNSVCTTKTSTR

Take `COc1cccc(Cn2cc(C(=O)NCc3n[nH]c4ccc(Cl)cc34)cn2)c1` [Example 26, N-((5-chloro-1H-indazol-3-yl)methyl)-1-(3-methoxybenzyl)-1H-pyrazole-4-carboxamide]: the IC50 (in general, the concentration needed to halve the response being measured) was 0.429 µM. The value for `O=C(NCc1cccc(Cl)c1F)c1cnn(Cc2ccc(Cn3cccn3)cc2)c1` [Example 27, 1-(4-((1H-pyrazol-1-yl)methyl)benzyl)-N-(3-chloro-2-fluorobenzyl)-1H-pyrazole-4-carboxamide] was 0.844 µM; that for `C[C@@H](NC(=O)c1cnn(Cc2ccc(Cn3cccn3)cc2)c1)c1cccc(Cl)c1F` [Example 28, (R)-1-(4-((1H-pyrazol-1-yl)methyl)benzyl)-N-(1-(3-chloro-2-fluorophenyl)ethyl)-1H-pyrazole-4-carboxamide] was 27.2 µM. Compound `Cn1nnc2cc(Cn3cc(C(=O)NCc4cccc(Cl)c4)cn3)ccc21` [N-(3-chlorobenzyl)-1-((1-methyl-1H-benzo[d][1,2,3]triazol-5-yl)methyl)-1H-pyrazole-4-carboxamide] registered a 50% inhibitory concentration (IC50) above 30 µM.

In the case of `COc1cccc(Cn2cc(C(=O)NCc3ccc(Cl)cc3)cn2)c1` [N-(4-chlorobenzyl)-1-(3-methoxybenzyl)-1H-pyrazole-4-carboxamide], the IC50 is above 30 µM.

The compound `COc1ccc(Cn2cc(C(=O)NCc3ccc(Cl)cc3)cn2)cc1` [N-(4-chlorobenzyl)-1-(4-methoxybenzyl)-1H-pyrazole-4-carboxamide] showed an IC50 above 30 µM.

In the case of `Cc1ccc(CNC(=O)c2cn(Cc3ccc4nc(C)ccc4c3)nn2)c(Cl)n1` [N-((2-chloro-6-methylpyridin-3-yl)methyl)-1-((2-methylquinolin-6-yl)methyl)-1H-1,2,3-triazole-4-carboxamide], the 50% inhibitory concentration (IC50) is above 30 µM.

In turn, `COc1cc(C)c(CNC(=O)c2cn(Cc3ccc4nc(C)ccc4c3)nn2)c(C)n1` [N-((6-methoxy-2,4-dimethylpyridin-3-yl)methyl)-1-((2-methylquinolin-6-yl)methyl)-1H-1,2,3-triazole-4-carboxamide] came in with an IC50 above 30 µM.
